# Reference: PMC11125953 (Viruses, 2024)
# Counter-ions that a name gives are not always drawn. Like-named read-outs stand apart in the source and are kept apart here.
# Tests used:
# [1] = system: EHV-4 405/76 reference strain; experiment: RTCA; format: cell-based, Equid herpesvirus 4; settings: for AUCn: area under normalized Cell Index curves, 0-120 hpi, EHV-4-infected E. Derm cells
# [2] = system: EHV-4 405/76 reference strain; settings: for CIT50 increase: RTCA, EHV-4-infected E. Derm cells; for Si (CC50/EC50, RTCA): ratio of CC50 to EC50 obtained by RTCA
# [3] = system: EHV-4 405/76 reference strain; settings: ratio of CC50 to EC50 obtained by qPCR
# [4] = Cytotoxicity by CellTiter-Glo; settings: horse
# [5] = Cytotoxicity by impedance using RTCA; settings: horse, E. Derm cells
# [6] = system: EHV-4 405/76 reference strain; experiment: microbe, parasite or virus in culture
# [7] = system: EHV-4 405/76 reference strain; experiment: microbe, parasite or virus in culture; remark: listed apart in the source
# [8] = in vitro; settings: horse
# [9] = in vitro; settings: horse; remark: listed apart in the source
# [10] = Equid alphaherpesvirus 4, read-out: RTCA EC50 (µM ± S.D)
# [11] = Equid alphaherpesvirus 4, read-out: qPCR EC50 (µM ± S.D)
# [12] = Equid alphaherpesvirus 4, read-out: qPCR EC50 (µg/mL ± S.D)
# [13] = Equid alphaherpesvirus 4, read-out: RTCA EC50 (µg/mL ± S.D)
# [14] = Equid alphaherpesvirus 4, 120 h, read-out: %AUCn
SMILES,AUCn ([1]; 0.4 µM),AUCn ([1]; 2 µM),AUCn ([1]; 10 µM),AUCn ([1]; 50 µM),other results
"NCCCC(N)(C(=O)O)C(F)F (stereo not shown) [Eflornithin (dfmo), Eflornithin]",44.63,32.10,30.27,32.46,–
C[C@@]1(CO)[C@H](O)CC[C@@]2(C)[C@H]1CC[C@H]1C[C@@H]3C[C@@]12CC[C@]3(O)CO [Aphidicolin],27.44,81.72,106.29,–,"CIT50 increase ([2]; 1.25 µM): 7.48 ± 2.69 h; CIT50 increase ([2]; 2.5 µM): 22.43 ± 4.89 h; Si (CC50/EC50, RTCA) [2]: >23.15; SI (CC50 CellTiter-Glo/EC50 qPCR) [3]: >161.29; CC50 [4]: > 50 µM; CC50 [5]: > 50 µM; EC50 [6, 10]: 2.16 ± 0.18 µM; EC50 [7, 11]: 0.31 ± 0.09 µM; EC50 [7, 12]: 0.11 ± 0.03 µg/mL"
CC(C)[C@H](N)C(=O)OCCOCn1cnc2c(=O)[nH]c(N)nc21 [Valaciclovir],33.27,28.12,27.99,42.38,–
C[C@@]1(O)[C@H](O)[C@@H](CO)O[C@H]1n1ccc(N)nc1=O [2′-C-methylcytidine],37.52,35.13,26.93,30.32,–
CC(=O)OCC(CCn1cnc2cnc(N)nc21)COC(C)=O [Famciclovir],39.12,34.29,36.03,37.57,–
CCCCCOC(=O)Nc1nc(=O)n([C@@H]2O[C@H](C)[C@@H](O)[C@H]2O)cc1F [Capecitabine],35.92,36.42,36.13,33.97,–
O=C(N/N=C/c1ccc(O)c(O)c1)c1cc2ccccc2cc1O [Dynasore],13.10,13.81,18.85,23.18,–
CC(C)OC(=O)[C@H](C)N[P@](=O)(OC[C@H]1O[C@@H](n2ccc(=O)[nH]c2=O)[C@](C)(F)[C@@H]1O)Oc1ccccc1 [Sofosbuvir],35.31,33.28,34.01,35.76,–
Nc1nc(=O)n([C@@H]2CS[C@H](CO)O2)cc1F [Emtricitabine],36.81,35.47,34.12,37.28,–
Cc1ccc2c(=O)c3cccc(CC(=O)O)c3oc2c1C [DMXAA],36.50,37.99,41.23,60.10,–
CCC(C)(C)C(=O)O[C@H]1C[C@@H](C)C=C2C=C[C@H](C)[C@H](CC[C@@H]3C[C@@H](O)CC(=O)O3)[C@H]21 [Simvastatin],34.65,32.56,24.99,20.58,–
Nc1ncnc2c1ncn2[C@@H]1O[C@H](CO)[C@@H](O)[C@@H]1O [Vidarabine],41.3,35.7,48.7,71.5,"Si (CC50/EC50, RTCA) [2]: >2.94; CC50 [8]: > 50 µM; CC50 [9]: > 50 µM; EC50 [6, 10]: 17 ± 4.5 µM; EC50 [6, 13]: 4.85 ± 1.28 µg/mL; EC50 [7, 11]: 13.7 ± 1.92 µM; EC50 [7, 12]: 3.91 ± 0.55 µg/mL"
O=c1[nH]cc(F)c(=O)[nH]1 [5-fluorouracil],39.89,31.41,31.13,36.75,–
CC(C)(C)C(=O)OCOP(=O)(COCCn1cnc2c(N)ncnc21)OCOC(=O)C(C)(C)C [Adefovir dipivoxil],99.92,93.75,73.47,39.70,–
CC[C@H](C)C(=O)O[C@H]1C[C@H](O)C=C2C=C[C@H](C)[C@H](CC[C@@H](O)C[C@@H](O)CC(=O)O)[C@H]21 [Pravastatin],45.23,36.52,37.85,30.29,–
O=c1[nH]c(=O)n([C@H]2C[C@H](O)[C@@H](CO)O2)cc1I [Idoxuridine],36.8,30.6,63.0,143.7,"Si (CC50/EC50, RTCA) [2]: >1.48; SI (CC50 CellTiter-Glo/EC50 qPCR) [3]: >6.68; CC50 [8]: > 50 µM; CC50 [9]: > 50 µM; EC50 [6, 10]: 33.8 ± 15.8 µM; EC50 [6, 13]: 11.9 ± 5.61 µg/mL; EC50 [7, 11]: 7.49 ± 1 µM; EC50 [7, 12]: 2.65 ± 0.35 µg/mL"
Nc1ccn([C@@H]2O[C@H](CO)[C@@H](O)[C@@H]2O)c(=O)n1 [Cytarabine],28.59,32.46,91.79,91.89,–
CCOC(=O)c1c(CSc2ccccc2)n(C)c2cc(Br)c(O)c(CN(C)C)c12 [Arbidol],31.88,39.33,37.59,35.06,–

SMILES,AUCn ([1]; 0.4 µM),AUCn ([1]; 2 µM),AUCn ([1]; 10 µM),AUCn ([1]; 50 µM),other results
"Cc1nc(N(C)C(=O)Cc2ccc(-c3ccccn3)cc2)sc1S(N)(=O)=O [BAY 57-1293, pritelivir]",27.43,27.62,44.70,145.59,"Si (CC50/EC50, RTCA) [2]: >2.81; SI (CC50 CellTiter-Glo/EC50 qPCR) [3]: >15.11; CC50 ([4]; E. Derm cells): > 50 µM; CC50 [5]: > 50 µM; EC50 [6, 10]: 17.8 ± 1.2 µM; EC50 [6, 13]: 7.15 ± 0.48 µg/mL; EC50 [7, 11]: 3.31 ± 0.89 µM; EC50 [7, 12]: 1.33 ± 0.36 µg/mL"
O=c1c(-c2ccc(O)cc2)coc2cc(O)cc(O)c12 [Genistein],11.7,12.8,13.3,11.8,"activation at 0.4 µM [1, 14]: -17.5%; activation at 2 µM [1, 14]: -9.65%; activation at 10 µM [1, 14]: -6.34%; activation at 50 µM [1, 14]: -16.7%"
Sc1ncnc2nc[nH]c12 [6-mercaptopurine],39.53,37.02,28.97,27.72,–
COc1nc(N)nc2c1ncn2[C@@H]1O[C@H](CO)[C@@H](O)[C@@H]1O [Nelarabine],33.26,32.33,30.63,40.34,–
Nc1nc2nc[nH]c2c(=S)[nH]1 [6-thioguanine],37.89,38.05,34.04,29.32,–
CC(C)Nc1nc2cc(Cl)c(Cl)cc2n1[C@H]1O[C@@H](CO)[C@H](O)[C@@H]1O [Maribavir],33.80,34.21,32.99,45.42,–
Nc1nc(NC2CC2)c2ncn([C@H]3C=C[C@@H](CO)C3)c2n1 [Abacavir sulfate],38.16,32.21,31.76,32.99,–
CC(C)n1c(/C=C/C(O)CC(O)CC(=O)O)c(-c2ccc(F)cc2)c2ccccc21 (stereo not shown) [Fluvastatin],33.08,16.45,11.66,13.86,–
[H]/N=C(\N/C(=N/[H])Nc1ccc(Cl)cc1)NC(C)C [Proguanil hydrochloride],34.82,36.10,38.33,59.56,–
Nc1nc(O)c2ncn(COC(CO)CO)c2n1 [Ganciclovir],57.9,74.3,116.3,138.7,"Si (CC50/EC50, RTCA) [2]: >12.35; SI (CC50 CellTiter-Glo/EC50 qPCR) [3]: >37.88; CC50 [8]: > 50 µM; CC50 [9]: > 50 µM; EC50 [6, 10]: 4.05 ± 0.22 µM; EC50 [6, 13]: 1.03 ± 0.06 µg/mL; EC50 [7, 11]: 1.32 ± 1.06 µM; EC50 [7, 12]: 0.34 ± 0.27 µg/mL"
O=c1[nH]c(=O)n([C@H]2C[C@H](O)[C@@H](CO)O2)cc1/C=C/Br [Brivudine],28.13,30.37,31.74,36.82,–
Cc1cn([C@@H]2C[C@@H](O)[C@H](CO)O2)c(=O)[nH]c1=O [Telbivudine],30.51,35.43,31.31,39.04,–
Cc1cn([C@H]2C=C[C@@H](CO)O2)c(=O)[nH]c1=O [Stavudine],37.85,32.94,32.23,30.20,–
CC(C)OC(=O)OCOP(=O)(CO[C@H](C)Cn1cnc2c(N)ncnc21)OCOC(=O)OC(C)C [Tenofovir disoproxil],34.89,43.49,93.87,52.88,–
C[C@H](CCCC(C)(C)O)[C@H]1CC[C@H]2[C@@H]3CC=C4C[C@@H](O)CC[C@]4(C)[C@H]3CC[C@]12C [25-hydroxycholesterol],39.29,34.81,29.79,31.86,–
Nc1nc2c(ncn2CCC(CO)CO)c(=O)[nH]1 [Penciclovir],36.54,33.23,30.15,42.37,–
O=c1[nH]cnc2c1ncn2[C@H]1CC[C@@H](CO)O1 [Didanosine],37.77,36.23,29.27,38.91,–
NC(=O)c1nc(F)c[nH]c1=O [Favipiravir],30.35,41.18,37.23,74.44,–
